Values after ≈ are worked out from the molar mass of the structure shown.
How the values were obtained:
[1] = tested on: DU-145 human prostate cancer cells; experiment: In vitro activity assay of adjuvant treatment of prostate cancer tumor cells using Taxol (MTT assay); type: cell-based; settings: DU-145, 0.0043 μg/ml Taxol alone (control group)
Experimental: (§1) Doses of 4,7-dimethoxy-5-methy-1,3-benzodioxole were 30, 10, 3, 1, 0.3, 0.1, and 0.03 μg/ml (the experimental group) and 0 μg/ml of 4,7-dimethoxy-5-methy-1,3-benzodioxole (the control group) for each well incubated at 37° C., 5% CO2 for 48 hours. 2.5 mg/ml MTT dye is added to each well without light and incubated for 4 hours, then treated with 100 μl lysis buffer to stop the reaction.

[2] = tested on: LNCaP human prostate cancer cells; experiment: as above; type: cell-based
Experimental: as §1

[3] = tested on: Hep G2 human liver cancer cells; settings: Hep G2, 0.0017 μg/ml Taxol alone (control group)
Experimental: (§7) First, Hep 3B human liver cancer cells and Hep G2 human liver cancer cells were respectively cultured in culture medium supplemented with fetal bovine serum for 24 hours. The proliferative cells were washed with PBS once, and treated with one-fold trypsin/EDTA solution. After centrifuged at 1,200 rpm for 5 min, the supernatant was removed and the cell pellet was transferred to new tubes and treated with 10 ml medium to suspend the cells again. Before the assay, the Hep 3B cell line was treated with 0.0043 μg/ml Lovastatin for 72 hours and the Hep G2 cell line was treated with 0.0017 μg/ml Taxol for 72 hours, and then plated in 96 well microplates. Doses of 4,7-dimethoxy-5-methy-1,3-benzodioxole were 30, 10, 3, 1, 0.3, 0.1, and 0.03 μg/ml (the experimental group) and 0 μg/ml of 4,7-dimethoxy-5-methy-1,3-benzodioxole (the control group) for each well incubated at 37° C., 5% CO2 for 48 hours. 2.5 mg/ml MTT dye is added to each well without light and incubated for 4 hours, then treated with 100 μl lysis buffer to stop the reaction. Subsequently, absorption was measured on an enzyme immunoassay analyzer at 570 nm for the measurement of viable cell number. The concentration of the drug measured at 50% of the cell death (i.e. IC50 value) was determined and calculated.

[4] = tested on: MCF-7 human breast cancer cells; experiment: In vitro activity assay of adjuvant treatment of breast cancer tumor cells using Taxol (MTT assay); type: cell-based; settings: MCF-7, 0.0017 μg/ml Taxol alone (control group, 0 μg/ml benzodioxole)
Experimental: as §1

[5] = tested on: MDA-MB-231 human breast cancer cells; experiment: as above; type: cell-based; settings: MDA-MB-231, 0.0017 μg/ml Taxol alone (control group, 0 μg/ml benzodioxole)
Experimental: as §1

[6] = tested on: Hep 3B human liver cancer cells; experiment: In vitro assay of anti-tumor activity of liver cancer (MTT assay); type: cell-based; settings: Hep3B, 48 h
Experimental: (§2) According to anti-tumor agents screening model of National Cancer Institute (NCI) of the United States National Institutes of Health, the assay is processed by adding 4,7-dimethoxy-5-methy-1,3-benzodioxole into the culture medium of Hep 3B and Hep G2 human liver cancer tumor cells respectively.
(§3) Doses of ethyl alcohol extract of Antrodia camphorate (the control group) were respectively 30, 10, 3, 1, 0.3, 0.1, and 0.03 μg/ml for each well and 4,7-dimethoxy-5-methy-1,3-benzodioxole (the experimental group) were respectively 30, 10, 3, 1, 0.3, 0.1, and 0.03 μg/ml for each well incubated at 37° C., 5% CO2 for 48 hours. 2.5 mg/ml MTT dye is added to each well without light and incubated for 4 hours, then treated with 100 μl lysis buffer to stop the reaction.

[7] = tested on: Hep G2 human liver cancer cells; experiment: as above; type: cell-based; settings: HepG2, 48 h
Experimental: as §2, §3

[8] = tested on: DU-145 human prostate cancer cells; experiment: In vitro assay of anti-tumor activity of prostate cancer (MTT assay); type: cell-based; settings: DU-145, 48 h
Experimental: (§4) According to anti-tumor agents screening model of National Cancer Institute (NCI) of the United States National Institutes of Health, the assay is processed by adding 4,7-dimethoxy-5-methy-1,3-benzodioxole into the culture medium of LNCaP and DU-145 human prostate cancer tumor cells respectively.
as §3, with “camphorata” for “camphorate”, “1,” for “1, 0.3, 0.1,”, “0.3” for “0.03”

[9] = tested on: LNCaP human prostate cancer cells; experiment: as above; type: cell-based; settings: 48 h
Experimental: as §4
as §3, with “camphorata” for “camphorate”, “1,” for “1, 0.3, 0.1,”, “0.3” for “0.03”

[10] = tested on: MCF-7 human breast cancer cells; experiment: In vitro assay of anti-tumor activity of breast cancer (MTT assay); type: cell-based; settings: MCF7, 48 h
From the text: (§5) According to anti-tumor agents screening model of National Cancer Institute (NCI) of the United States National Institutes of Health, the assay is processed by adding 4,7-dimethoxy-5-methy-1,3-benzodioxole into the culture medium of MCF-7 human tumor cells and MDA-MB-231 human tumor cells respectively. The assay of tumor cell viability can be evaluated by using the conventional MTT assay, and MCF-7 and MDA-MB-231 are human breast cancer tumor cell lines.
(§6) MTT assay is a conventional assay used to analyze the cell proliferation, percentage of viable cells, and cytotoxicity. MTT (3-(4,5-dimethylthiazole-2-yl)-2,5-diphenyl tetrazolium bromide) is a yellow dye, and is metabolized only in living cells by the mitochondrial succinate-tetrazolium reductase system to produce blue violet insoluble formazan products, thereby providing a measure of the number of viable cells upon generation of formazan products in viable cells.
as §3, with “camphorata” for “camphorate”

[11] = tested on: MDA-MB-231 human breast cancer cells; experiment: as above; type: cell-based; settings: MDA-MB-231, 48 h
From the text: as §5, §6
as §3, with “camphorata” for “camphorate”

[12] = tested on: Hep 3B human liver cancer cells; settings: 0.0043 μg/ml Lovastatin alone (control group)
Experimental: as §7

## CC(=O)O[C@H]1C(=O)[C@@]2(C)[C@H]([C@H](OC(=O)c3ccccc3)[C@]3(O)C[C@H](OC(=O)[C@H](O)[C@@H](NC(=O)c4ccccc4)c4ccccc4)C(C)=C1C3(C)C)[C@]1(OC(C)=O)CO[C@@H]1C[C@@H]2O [Taxol]
[1]
  The ratio of viable cells (%): 71 ± 1%
[2]; 0.0017 μg/ml Taxol alone (control group)
  The ratio of viable cells (%): 55 ± 1%
[3]
  The ratio of viable cells (%): 86 ± 1%
[4]
  The ratio of viable cells (%): 69 ± 1%
[5]
  The ratio of viable cells (%): 86 ± 1%

## COc1cc(C)c(OC)c2c1OCO2 [4,7-dimethoxy-5-methy-1,3-benzodioxole]
[2]; Homo sapiens
  IC50: 1.16 µg/mL
[6]
  IC50: 0.016 µg/mL (≈ 0.0815 µM)
[7]
  IC50: 2.46 µg/mL (≈ 12.5 µM)
[8]
  IC50: 2.21 µg/mL (≈ 11.3 µM)
[9]
  IC50: 4.46 µg/mL (≈ 22.7 µM)
[10]
  IC50: 1.72 µg/mL (≈ 8.77 µM)
[11]
  IC50: 0.992 µg/mL (≈ 5.06 µM)

## CC[C@H](C)C(=O)O[C@H]1C[C@@H](C)C=C2C=C[C@H](C)[C@H](CC[C@@H]3C[C@@H](O)CC(=O)O3)[C@H]21 [Lovastatin]
[12]
  The ratio of viable cells (%): 69 ± 1%

Source: patent US20080103195A1, “COMPOUNDS FROM ANTRODIA CAMPHORATA FOR INHIBITING THE GROWTH OF CANCER TUMOR CELLS” (priority 2006, published 2008)
